# From patent US7615533B2, “TPO peptide compounds for treatment of anemia” (Janssen Pharmaceutica N.V., priority 2004, dated 2009)
# Non-standard residues stand in square brackets, D forms with d. No end group written: not given here. 2Nal = N[C@@H](Cc1ccc2ccccc2c1)C(=O)O; Sar = CNCC(=O)O
# Experiments:
# carboplatin treated mice = assay: Example 3: dosing at various times after carboplatin, anemia in mice; type: in vivo, BALB/c mouse
# Experimental: (§1) The effects of PEGylated TPO Compound No. 1 on mice treated with carboplatin were observed. For all examples herein, a 10 mg/ml stock solution of PEGylated TPO Compound No. 1 was prepared in sterile saline. For mixing, the preparation was placed on a gyratory shaker for 15 mm. at 200 rpm. This method was used to dissolve PEGylated TPO Compound No. 1 without foaming. The stock was filtered using a GV Millex (0.22 μm) filter. Dosing solutions were then prepared from this stock using sterile saline. The stock and dosing solutions were prepared fresh on the day of use.
# The effect of PEGylated TPO Compound No. 1 on the duration and severity of anemia following dosing regimens in which PEGylated TPO Compound No. 1 is administered at various times following the carboplatin treatment was observed. For this study, an amount of PEGylated TPO Compound No. 1 was administered to mice, one (1) hour, one (1) day or four (4) days following a carboplatin dose.
# (§2) The groups of mice were treated with either carboplatin or vehicle (Phosphate Buffered Saline, PBS) by ip administration on Days −1 and 0 as delineated below. The optimal dose of carboplatin used to induce thrombocytopenia in the BALB/c mouse strain was previously determined to be a fractionated total dose of 120 mg/kg given as two consecutive daily injections (i.e., 2×60 mg/kg). One hour (Day 0), one day (Day 1) or four days (Day 4) following the second dose of carboplatin, groups of mice were treated with PEGylated TPO Compound No. 1 (300 μg/kg) or vehicle (sterile saline, SS, preservative-free 0.9% sodium chloride) by IV (bolus) injection as delineated in Table 3. The dose was administered on a per-weight basis (100 μl/10 g body weight).
# (§3) On Days 6, 8, 10 & 12, five mice in each test group were weighed and then euthanised using CO2-asphyxiation and exsanguinations via cardiac puncture. The blood samples were transferred to separate EDTA (lavender-top) microcontainers for hematological evaluation. Groups of control mice (5) were processed on Days 6 & 12. The data are presented graphically as group means +SEM.
# carboplatin-treated mice = assay: Example 4: lower doses, survival of erythrocyte lineages in carboplatin-treated mice; type: in vivo, BALB/c mouse
# Experimental: as §1
# The ability of PEGylated TPO Compound No. 1 to function as a survival factor for megakaryocyte and erythrocyte lineages in carboplatin-treated mice as determined by changes in hematological parameters was observed. […] In this study, the effect of lower doses of PEGylated TPO Compound No. 1 (i.e., 30, 100 and 300 μg/kg) on the survival of erythrocyte lineages was examined to characterize the dose-response for this effect.
# as §2, with “Approximately one” for “One”, “hour” for “hour (Day 0), one day (Day 1) or four days (Day 4)”, “1” for “1 (300 μg/kg)”, “4.” for “3.”
# as §3, with “8 and” for “8, 10 &”, “hematologic” for “hematological”, “12.” for “12. The data are presented graphically as group means +SEM.”
# [1] = target: T1, human TPO receptor, c-mpl (hTPOr) (Homo sapiens, UniProt P40238); assay: Example 7: Baf/3 hTPOr fos/lux luciferase reporter assay; type: cell-based
# T1 construct: expressed in transfected cells
# T1 sequence (P40238 26-635): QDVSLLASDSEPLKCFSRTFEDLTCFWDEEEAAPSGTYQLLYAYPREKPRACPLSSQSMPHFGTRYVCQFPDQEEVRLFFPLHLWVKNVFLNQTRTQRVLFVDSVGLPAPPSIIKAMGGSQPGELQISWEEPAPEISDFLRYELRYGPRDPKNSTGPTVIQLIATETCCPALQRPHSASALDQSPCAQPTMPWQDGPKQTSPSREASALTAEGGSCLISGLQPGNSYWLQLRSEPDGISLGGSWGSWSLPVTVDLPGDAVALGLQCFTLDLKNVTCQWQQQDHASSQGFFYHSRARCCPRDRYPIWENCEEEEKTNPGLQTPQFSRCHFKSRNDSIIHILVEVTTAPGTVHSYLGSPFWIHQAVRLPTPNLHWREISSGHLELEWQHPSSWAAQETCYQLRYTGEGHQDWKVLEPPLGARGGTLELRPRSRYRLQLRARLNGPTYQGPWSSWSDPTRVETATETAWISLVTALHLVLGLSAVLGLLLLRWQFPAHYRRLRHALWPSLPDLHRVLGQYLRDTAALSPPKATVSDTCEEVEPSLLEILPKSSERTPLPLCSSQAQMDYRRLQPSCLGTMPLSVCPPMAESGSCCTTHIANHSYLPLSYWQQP
# Excerpt: The activity of the peptide compounds can be determined using standard relative luminescent units assay techniques. The assay employs, e.g., murine cells engineered to stably express the human TPO receptor and a luciferase reporter construct driven by the fos promoter. The assay may be performed as follows: Serum deprived Baf/3 hTPOr fos/lux cells expressing the human TPO receptor, c-mpl (hTPOr), and a luciferase reporter construct are exposed to increasing concentrations of either rhTPO or peptide compound for approximately 18 hours. Cells are then incubated in a medium containing a luciferase substrate and the luminescence of the cells is measured using a luminometer.
Molecule,"decreases in hemoglobin levels, RBC counts and hematocrits (carboplatin treated mice; carboplatin alone 2×60 mg/kg ip, surviving mice (2 mice) by Day 12 compared to control groups)","decrease in hemoglobin levels (carboplatin-treated mice; carboplatin alone 2×60 mg/kg ip, by Day 12)",activation of TPO-R compared with TPO ([1]; at the same concentration as TPO),activation of Baf/3 cells recombinantly expressing human TPO-R ([1]; increasing concentrations),"carboplatin-induced decreases in hemoglobin levels, RBC counts and hematocrits (carboplatin treated mice; 300 μg/kg iv on Day 0 (1 hour after carboplatin) and on Day 1)","weight loss associated with carboplatin treatment (carboplatin treated mice; 300 μg/kg iv on Day 0, Day 1 or Day 4, no statistical analysis)",carboplatin-induced changes in erythrocyte parameters (carboplatin treated mice; 300 μg/kg iv on Day 4),"onset, frequency or severity of signs (hunched, flaccid) (carboplatin treated mice; 300 μg/kg iv, no detailed analysis)",carboplatin-induced anemia (carboplatin treated mice; dosed within 24 hours of chemotherapy),"carboplatin-induced decreases in RBC counts and hematocrit (carboplatin-treated mice; 30, 100, 300 μg/kg iv)","weight loss or recovery (carboplatin-treated mice; 30, 100, 300 μg/kg iv, 13-Day study period)","carboplatin-induced decrease in hemoglobin levels (carboplatin-treated mice; all doses (30, 100, 300 μg/kg iv, about one hour after second carboplatin dose), Day 12)","anemia induced by carboplatin (carboplatin-treated mice; all doses, Day 12)","altered appearance and behavior (hunched, unkempt, soft stool) (carboplatin-treated mice; appeared to be dose-dependent)"
"N.N.O=C([O-])C1(C(=O)[O-])CCC1.[Pt+2] [carboplatin, reference compound]",approx. 47%,greater than 25%,,,,,,,,,,,,
"Methoxypolyethyleneglycol20000-propionyl-L-Isoleucyl-L-Glutamyl-Glycyl-L-Prolyl-L-Threonyl-L-Leucyl-L-Arginyl-L-Glutaminyl-L-2-Naphthylalanyl-L-Leucyl-L-Alanyl-L-Alanyl-L-Arginyl-Sarcosyl-Ne-(methoxypolyethyleneglycol20000-propionyl-L-Isoleucyl-L-Glutamyl-Glycyl-L-Prolyl-L-Threonyl-L-Leucyl-L-Arginyl-L-Glutaminyl-L-2-Naphthylalanyl-L-Leucyl-L-Alanyl-L-Alanyl-L-Arginyl-Sarcosyl-)-Lysinamide ({methoxypolyethyleneglycol20000‑propionyl}-IEGPTLRQ[2Nal]LAAR[Sar]K[Sar]RAAL[2Nal]QRLTPGEI; also: dimer: positions 16-29 are the second 14-mer written in reverse, its Sar C-terminus joined to the K15 epsilon-amine, K15 is C-terminal lysinamide (NH2), methoxypolyethyleneglycol20000-propionyl also on Ile29 N-terminus) [PEGylated TPO Compound No. 1]",,,stronger activation,dose dependent,prevented,did not appear to affect the weight loss,failed to affect carboplatin-induced changes,did not appear to have a dramatic effect,Prevention of carboplatin-induced anemia is observed,effectively inhibited,did not appear to affect weight loss or recovery,totally inhibited,completely prevent the anemia,"decreased the onset, frequency and severity of these signs"
